According to patent publication US9174994B2, “Enhanced treatment regimens using mTor inhibitors” (INTELLIKINE LLC, priority 2011, dated 2015):

Assay: Phase I clinical trial: treatment-emergent adverse events (patients, n (%)), dose limiting toxicity, MTD
Assay type: in vivo
[1] = Table 8: Total QD Dosing (N = 25)
[2] = Table 8: Total QDx3d QW (N = 14)

Protocol: Safety, maximum tolerated dose (MTD), pharmacokinetics (PK) and preliminary antitumor activity were evaluated.
Pharmacodynamic (PD) endpoints were evaluated in surrogate (peripheral blood cells [PBCs], skin) and tumor tissues for the phosphorylation of TORC1-dependent markers (4EBP1/S6), and TORC2-dependent markers (AKT/PRAS40).

CC(C)n1nc(-c2ccc3oc(N)nc3c2)c2c(N)ncnc21 [compound A]
Eye infection (Table 8: Total (N = 60)): 1 (2%)
Fatigue (Table 8: Total (N = 60)): 1 (2%)
Gastritis (Table 8: Total (N = 60)): 1 (2%)
Gravitational oedema (Table 8: Total (N = 60)): 1 (2%)
Headache (Table 8: Total (N = 60)): 1 (2%)
Hyperbilirubinaemia (Table 8: Total (N = 60)): 1 (2%)
Hypertransaminasaemia (Table 8: Total (N = 60)): 1 (2%)
Hypertriglyceridaemia (Table 8: Total (N = 60)): 1 (2%)
Hypocalcaemia (Table 8: Total (N = 60)): 1 (2%)
Hypomagnesaemia (Table 8: Total (N = 60)): 1 (2%)
Hypotension (Table 8: Total (N = 60)): 1 (2%)
Insomnia (Table 8: Total (N = 60)): 1 (2%)
Low fever (Table 8: Total (N = 60)): 1 (2%)
Malaise (Table 8: Total (N = 60)): 1 (2%)
Nausea (Table 8: Total (N = 60)): 1 (2%)
Oral discomfort (Table 8: Total (N = 60)): 1 (2%)
Orthostatic hypotension (Table 8: Total (N = 60)): 1 (2%)
Palmar-plantar erythrodysaesthesia syndrome (Table 8: Total (N = 60)): 1 (2%)
Panniculitis (Table 8: Total (N = 60)): 1 (2%)
Platelet count decreased (Table 8: Total (N = 60)): 1 (2%)
Polyuria (Table 8: Total (N = 60)): 1 (2%)
Pyrexia (Table 8: Total (N = 60)): 1 (2%)
Rash (Table 8: Total (N = 60)): 1 (2%)
Rash macular (Table 8: Total (N = 60)): 1 (2%)
Skin discolouration (Table 8: Total (N = 60)): 1 (2%)
Skin exfoliation (Table 8: Total (N = 60)): 1 (2%)
Urinary tract infection (Table 8: Total (N = 60)): 1 (2%)
Urine tract infection (Table 8: Total (N = 60)): 1 (2%)
Vomiting (Table 8: Total (N = 60)): 1 (2%)
WEAKNESS (Table 8: Total (N = 60)): 1 (2%)
Weight decreased (Table 8: Total (N = 60)): 1 (2%)
Catheter site inflammation [1]: 0 (0%)
Catheter site pain [1]: 0 (0%)
Coagulopathy [1]: 1 (4%)
Confusional state [1]: 1 (4%)
Cough [1]: 1 (4%)
DIARRHEA [1]: 0 (0%)
Dizziness [1]: 1 (4%)
Dyspnoea exertional [1]: 1 (4%)
Eye infection [1]: 1 (4%)
Fatigue [1]: 0 (0%)
Gastritis [1]: 1 (4%)
Gravitational oedema [1]: 1 (4%)
Headache [1]: 0 (0%)
Hyperbilirubinaemia [1]: 0 (0%)
Hypertransaminasaemia [1]: 0 (0%)
Hypertriglyceridaemia [1]: 0 (0%)
Hypocalcaemia [1]: 1 (4%)
Hypomagnesaemia [1]: 0 (0%)
Hypotension [1]: 0 (0%)
Insomnia [1]: 1 (4%)
Low fever [1]: 0 (0%)
Malaise [1]: 0 (0%)
Nausea [1]: 0 (0%)
Oral discomfort [1]: 0 (0%)
Orthostatic hypotension [1]: 1 (4%)
Palmar-plantar erythrodysaesthesia syndrome [1]: 0 (0%)
Panniculitis [1]: 1 (4%)
Platelet count decreased [1]: 0 (0%)
Polyuria [1]: 1 (4%)
Pyrexia [1]: 0 (0%)
Rash [1]: 0 (0%)
Rash macular [1]: 0 (0%)
Skin discolouration [1]: 1 (4%)
Skin exfoliation [1]: 1 (4%)
Urinary tract infection [1]: 0 (0%)
Urine tract infection [1]: 0 (0%)
Vomiting [1]: 0 (0%)
WEAKNESS [1]: 0 (0%)
Weight decreased [1]: 1 (4%)
Catheter site inflammation [2]: 1 (7%)
Catheter site pain [2]: 1 (7%)
Coagulopathy [2]: 0 (0%)
Confusional state [2]: 0 (0%)
Cough [2]: 0 (0%)
DIARRHEA [2]: 0 (0%)
Dizziness [2]: 0 (0%)
Dyspnoea exertional [2]: 0 (0%)
Eye infection [2]: 0 (0%)
Fatigue [2]: 1 (7%)
Gastritis [2]: 0 (0%)
Gravitational oedema [2]: 0 (0%)
Headache [2]: 1 (7%)
Hyperbilirubinaemia [2]: 1 (7%)
Hypertransaminasaemia [2]: 1 (7%)
Hypertriglyceridaemia [2]: 1 (7%)
Hypocalcaemia [2]: 0 (0%)
Hypomagnesaemia [2]: 1 (7%)
Hypotension [2]: 1 (7%)
Insomnia [2]: 0 (0%)
Low fever [2]: 1 (7%)
Malaise [2]: 0 (0%)
Nausea [2]: 0 (0%)
Oral discomfort [2]: 0 (0%)
Orthostatic hypotension [2]: 0 (0%)
Palmar-plantar erythrodysaesthesia syndrome [2]: 1 (7%)
Panniculitis [2]: 0 (0%)
Platelet count decreased [2]: 1 (7%)
Polyuria [2]: 0 (0%)
Pyrexia [2]: 1 (7%)
Rash [2]: 0 (0%)
Rash macular [2]: 1 (7%)
Skin discolouration [2]: 0 (0%)
Skin exfoliation [2]: 0 (0%)
Urinary tract infection [2]: 1 (7%)
Urine tract infection [2]: 0 (0%)
Vomiting [2]: 0 (0%)
WEAKNESS [2]: 0 (0%)
